Publication PMC10285260, “Processive kinetics in the three-step lanosterol 14α-demethylation reaction catalyzed by human cytochrome P450 51A1” (The Journal of Biological Chemistry, 2023)
Where “and” joins values, the source holds several entries; their conditions need not be identical. Equal values may be shown once.

Tests used:
[1] = target: T1, human P450 51A1 (Homo sapiens, UniProt Q16850); experiment: Single-turnover rapid-quench kinetics of [3-3H]-dihydrolanosterol oxidation (radio-HPLC); type: biochemical; parameters: made in house; host or cells: Escherichia coli
T1 sequence (Q16850 1-509): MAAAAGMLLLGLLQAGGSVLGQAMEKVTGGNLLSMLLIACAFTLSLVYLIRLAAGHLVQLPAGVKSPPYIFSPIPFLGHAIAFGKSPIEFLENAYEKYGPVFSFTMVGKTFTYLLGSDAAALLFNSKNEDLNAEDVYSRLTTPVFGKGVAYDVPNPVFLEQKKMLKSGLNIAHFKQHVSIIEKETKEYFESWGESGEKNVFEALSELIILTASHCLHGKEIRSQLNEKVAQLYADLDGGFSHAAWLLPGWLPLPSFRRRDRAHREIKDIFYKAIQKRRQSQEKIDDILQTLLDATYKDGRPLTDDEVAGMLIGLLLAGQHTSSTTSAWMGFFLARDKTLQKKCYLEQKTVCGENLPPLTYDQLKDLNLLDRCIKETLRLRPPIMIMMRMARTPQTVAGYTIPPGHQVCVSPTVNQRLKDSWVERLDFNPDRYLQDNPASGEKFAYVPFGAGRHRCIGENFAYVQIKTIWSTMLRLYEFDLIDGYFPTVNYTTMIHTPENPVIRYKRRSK
Description: All products were separated and quantified by radio-HPLC (Fig. S24).
Samples (held at 4 °C) were injected (45 μl) onto a Nova-Pak 3.9 mm × 150 mm (4 μm) octadecylsilane (C18) HPLC column (held at 23 °C). The products were separated at a flow rate of 1.0 ml min^−1 using an isocratic mobile phase composed of CH3CN (only) as was done for the LC-UV assays (above). The eluate from the column was mixed (1:2, v-v) with FlowLogic U scintillation cocktail, and radioactivity (^3H) was detected on a β-RAM Model 5 system (IN/US, LabLogic) (Fig. S24). Product formation was assessed as the relative contribution of each peak (in CPM) to the summed peak area of substrate and product(s).
The single-turnover experiments were performed using a KinTek rapid quench-flow apparatus (KinTek). This machine functions by forcing equal volumes (∼19 μl) of two separate solutions into a central mixing chamber, where the components are allowed to incubate for a predetermined period of time before an excess volume of quench solution (∼160 μl) stops the reaction and expels the mixture from the apparatus. […] After the predetermined incubation period, the reaction (37 °C) was quenched with HCl (1 M), and the mixture (∼200 μl) was collected into vials. The products of five identical reactions (time points) were combined and were extracted into CH2Cl2 (5 ml). An aliquot (4 ml) of the lower (organic) layer was removed into a fresh vial, and the extraction was repeated to maximize sample recovery. The pooled organic fraction (∼8 ml) was brought to dryness under a stream of N2 gas, and the residue was redissolved in 60 μl of CH3OH and transferred to LC vials for analysis.

[2] = target: T1, human P450 51A1; experiment: Steady-state LC-UV assay of sterol oxidation to dihydro FF-MAS by reconstituted P450 51A1; conditions: for Rate of FF-MAS formation (replicates): listed as 14-CH2OH dihydrolanosterol
Description: Steady-state incubations (500 μl) were generally done at 37 °C with 0.025 μM P450 51A1, 0.10 μM NADPH-P450 reductase, 100 μM L-α-dilauroyl-sn-glycero-3-phosphocholine, 50 mM potassium phosphate buffer (pH 7.4), 10% (v/v) glycerol, and an indicated concentration of each sterol (in 45% (w/v) HPCD). […] The sterols (stored at 4 °C) were prepared as described above and were heated to 37 °C and sonicated prior to use. Sterol working stocks were diluted in HPCD to ensure a constant concentration of cyclodextrin in each reaction. […] Accordingly, all reactions were done with this concentration of glycerol.
Reactions were preincubated (5 min, 37 °C) prior to initiation with an NADPH-regenerating system (0.5 mM NADP^+, 10 mM glucose 6-phosphate, and 2 μg ml^−1 glucose 6-phosphate dehydrogenase) ([60]) and were stopped after 5 min with the addition of CH2Cl2 (5 ml). (The NADPH-generating system, in addition to lower cost than NADPH, drives the reaction to avoid inhibition of the reductase by accumulated NADP^+). For the 14α-aldehyde, the times of preincubation and reaction were reduced (to 2 min and 1 min, respectively). The quenched mixture was centrifuged (2000g, 5 min), and 4 ml of the bottom (organic) layer was transferred to vials and brought to dryness under a stream of N2 gas. The dried residue was resuspended in CH3OH (100 μl) and was analyzed by UPLC using a 2.1 mm × 100 mm (1.7 μm) octadecylsilane (C18) column (held at 25 °C) and a Waters Acquity UPLC system. Samples (4 °C) were injected (10 μl) at a flow rate of 0.20 ml min^−1 using an isocratic mobile phase of CH3CN (only). The product (FF-MAS) was detected using a Waters Acquity photodiode array detector set at 250 nm (Fig. 4B). Data were processed using the MassLynx software (http://www.waters.com/waters/en_US/MassLynx-Mass-Spectrometry-Software-/nav.htm?cid=513164&locale=en_US), and the amount of product formed was calculated by comparison to a twelve-point dihydro FF-MAS standard curve. Determination of kcat and Km for each reaction was carried out by fitting the data to a Michaelis–Menten hyperbola, which was done using GraphPad Prism.
Incubations were run in triplicate, and the mean values (±SD) were calculated and plotted. The linear regression fits include the Prism error estimates for internal fitting (SE).

CC(C)CCCC(C)[C@H]1CC[C@@]2(CO)C3=C(CC[C@]12C)[C@@]1(C)CC[C@H](O)C(C)(C)C1CC3 (stereo partly drawn) [14α-CH2OH dihydrolanosterol, 24,25-dihydro-14α-CH2OH lanosterol]
concentration in single-turnover reaction ([1]; time 0.05 s, start 7 µM dihydrolanosterol): 2.2428 µM
concentration in single-turnover reaction ([1]; time 0.1 s): 3.1584 µM
concentration in single-turnover reaction ([1]; time 0.15 s): 2.7482 µM
concentration in single-turnover reaction ([1]; time 0.2 s): 2.961 µM
concentration in single-turnover reaction ([1]; time 0.3 s): 2.3331 µM
concentration in single-turnover reaction ([1]; time 0.4 s): 1.9978 µM
concentration in single-turnover reaction ([1]; time 0.6 s): 1.1711 µM
concentration in single-turnover reaction ([1]; time 0.8 s): 0.9849 µM
concentration in single-turnover reaction ([1]; time 1 s): 0.4431 µM
concentration in single-turnover reaction ([1]; time 1.2 s): 0 µM
concentration in single-turnover reaction ([1]; time 1.6 s): 0 µM
concentration in single-turnover reaction ([1]; time 2 s): 0 µM
concentration in single-turnover reaction ([1]; time 3 s): 0 µM
concentration in single-turnover reaction ([1]; time 4 s): 0 µM
concentration in single-turnover reaction ([1]; time 7 s): 0 µM
kcat relative to dihydrolanosterol ([2]; oxidation to dihydro FF-MAS): ~1.5 fold
kcat/Km relative to dihydrolanosterol ([2]; oxidation to dihydro FF-MAS): ~1.5 fold
Rate of FF-MAS formation (replicates) ([2]; substrate 0.25 µM): 1.4 min-1 (2×) and 1.5 min-1
Rate of FF-MAS formation (replicates) ([2]; substrate 0.50 µM): 3.1 min-1 and 3.0 min-1 (2×)
Rate of FF-MAS formation (replicates) ([2]; substrate 0.75 µM): 4.7 min⁻¹ and 4.5 min⁻¹ and 3.9 min⁻¹
Rate of FF-MAS formation (replicates) ([2]; substrate 1.00 µM): 6.5 min-1 (2×) and 7.1 min-1
Rate of FF-MAS formation (replicates) ([2]; substrate 1.50 µM): 8.9 min⁻¹ and 8.6 min⁻¹ and 11.1 min⁻¹
Rate of FF-MAS formation (replicates) ([2]; substrate 2.50 µM): 16.2 min⁻¹ and 16.4 min⁻¹ and 16.5 min⁻¹
Rate of FF-MAS formation (replicates) ([2]; substrate 5.00 µM): 25.1 min⁻¹ and 20.7 min⁻¹ and 25.9 min⁻¹
Rate of FF-MAS formation (replicates) ([2]; substrate 7.50 µM): 25.1 min⁻¹ and 26.3 min⁻¹ and 27.2 min⁻¹
Rate of FF-MAS formation (replicates) ([2]; substrate 10.00 µM): 26.4 min⁻¹ and 27.4 min⁻¹ and 26.6 min⁻¹
Rate of FF-MAS formation (replicates) ([2]; substrate 15.00 µM): 29.2 min⁻¹ and 33.0 min⁻¹ and 31.0 min⁻¹
